TGI data for eleven molecules are collected here from PubChem BioAssay (NCI).

SMILES strings stand for the structures.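 Briefly, cells in 96-well plates were exposed to five compound concentrations for 48 h, and endpoints were estimated by linear interpolation. TGI is the concentration that stops growth completely.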 Bounds are passed on as bounds.

Some test systems named below: SF-539 CNS; MDA-MB-435; TK-10 renal; A549 NSCLC; NCI-H460 lung; CCRF-CEM leukemia; K-562 leukemia; RPMI-8226 leukemia; RXF 393 renal; M14 melanoma; OVCAR-4 ovarian; OVCAR-5 ovarian; SK-MEL-5 melanoma.
What all share (assay): NCI-60 cell line screen, 48 h

Consider `CC(=O)Nc1ccc(-c2nc3cc(Cl)ccc3o2)cc1`, for which the TGI in the assay on SF-539 CNS, in the assay on MDA-MB-435, in the assay on TK-10 renal, in the assay with A549 NSCLC, with NCI-H460 lung and in the assay on CCRF-CEM leukemia was over 50 µM in each case. Also, the TGI in the assay on K-562 leukemia, in the assay with RPMI-8226 leukemia, in the assay with RXF 393 renal, in the assay on M14 melanoma, with OVCAR-4 ovarian and with OVCAR-5 ovarian was over 50 µM in each case. The molecule further returned a TGI with SK-MEL-5 melanoma of over 50 µM.
`O=C(NCCCN(CCCCN(CCCNC(=O)C(F)(F)F)CCCc1ccccc1)CCCc1ccccc1)C(F)(F)F`: the TGI turned out to be 3.16 µM in the assay with SF-539 CNS; 3.35 µM with MDA-MB-435; 3.79 µM with TK-10 renal; 3.73 µM with A549 NSCLC; 3.27 µM in the assay on NCI-H460 lung; 18.8 µM in the assay with CCRF-CEM leukemia. In addition, the TGI is over 100 µM in the assay on K-562 leukemia; 7.97 µM in the assay on RPMI-8226 leukemia; 3.31 µM with RXF 393 renal; 3.25 µM in the assay with M14 melanoma; 17.6 µM in the assay on OVCAR-4 ovarian; 25.9 µM in the assay with OVCAR-5 ovarian. Also, in the assay on SK-MEL-5 melanoma, the TGI worked out at 3.43 µM.
Consider `CSc1ncnc2c1cnn2CCCCO`, for which the TGI in the assay on SF-539 CNS, in the assay with MDA-MB-435, in the assay on TK-10 renal, in the assay on A549 NSCLC, in the assay on NCI-H460 lung and in the assay on CCRF-CEM leukemia was over 100 µM in each case. Besides, the TGI in the assay on K-562 leukemia, in the assay with RPMI-8226 leukemia, in the assay with RXF 393 renal, with M14 melanoma, with OVCAR-4 ovarian and in the assay with OVCAR-5 ovarian was over 100 µM each time. In the assay on SK-MEL-5 melanoma, this molecule came in with a TGI of over 100 µM.
For `O=C(CCc1cc(O)cc(O)c1)NCCc1cc(O)cc(O)c1`, the TGI with SF-539 CNS, with MDA-MB-435, with TK-10 renal, with A549 NSCLC, in the assay on NCI-H460 lung and with K-562 leukemia was over 100 µM throughout. Moreover, the TGI in the assay on RPMI-8226 leukemia, in the assay with RXF 393 renal, with M14 melanoma, in the assay with OVCAR-5 ovarian and in the assay with SK-MEL-5 melanoma was over 100 µM in each case.
Consider `Cc1ccc(-c2c3c(n(C4OC(CO)C(O)C(O)C4O)c(=S)c2C#N)CC(C)(C)CC3=O)cc1` (centres undefined), for which the TGI with SF-539 CNS, with MDA-MB-435, in the assay on TK-10 renal, with A549 NSCLC, in the assay with NCI-H460 lung and in the assay with CCRF-CEM leukemia was over 100 µM each time. Besides, the TGI with K-562 leukemia, with RPMI-8226 leukemia, with RXF 393 renal, in the assay on M14 melanoma, in the assay on OVCAR-4 ovarian and in the assay on OVCAR-5 ovarian was over 100 µM in each case. In the assay with SK-MEL-5 melanoma, this molecule came in with a TGI of over 100 µM.
In the case of `COc1ccc(-c2c(C#N)c(O)n(NS(=O)(=O)c3ccc(C)cc3)c(=O)c2C#N)cc1`, the TGI in the assay on SF-539 CNS, in the assay with MDA-MB-435, in the assay with TK-10 renal, in the assay on A549 NSCLC, in the assay with NCI-H460 lung and in the assay with CCRF-CEM leukemia was over 100 µM throughout. For the same molecule, the TGI is 54.3 µM in the assay on RPMI-8226 leukemia; over 100 µM in the assay on RXF 393 renal; over 100 µM in the assay with M14 melanoma; over 100 µM in the assay with OVCAR-4 ovarian; over 100 µM in the assay on OVCAR-5 ovarian; over 100 µM with SK-MEL-5 melanoma.
For `O=C(O)CCN(CCC(=O)O)c1ccc(/C=C2\SC(=S)NC2=O)cc1`, the TGI in the assay with SF-539 CNS, in the assay on MDA-MB-435, with TK-10 renal, in the assay on A549 NSCLC, in the assay on NCI-H460 lung and in the assay on CCRF-CEM leukemia was over 100 µM in each case. Further, the TGI in the assay with K-562 leukemia, in the assay with RPMI-8226 leukemia, in the assay with RXF 393 renal, in the assay with M14 melanoma, in the assay on OVCAR-4 ovarian and in the assay on OVCAR-5 ovarian was over 100 µM in each case. Further, the TGI with SK-MEL-5 melanoma was over 100 µM.
As to `NCCCNCCCCNCCCN`, the TGI is 34.3 µM with SF-539 CNS; over 68.2 µM in the assay on MDA-MB-435; 18.9 µM with TK-10 renal; over 100 µM in the assay with A549 NSCLC; over 100 µM with NCI-H460 lung; 5.72 µM in the assay on CCRF-CEM leukemia. The TGI was over 21.2 µM in the assay with K-562 leukemia; 1.59 µM with RPMI-8226 leukemia; 28.3 µM with RXF 393 renal; 29.4 µM with M14 melanoma; over 21.8 µM in the assay on OVCAR-4 ovarian; over 100 µM in the assay with OVCAR-5 ovarian. Further, the TGI with SK-MEL-5 melanoma was over 100 µM.
Turning to `O=c1c2c(-c3ccccc3)onc2n(-c2ccccc2)c(=O)n1-c1ccccc1`, the TGI with SF-539 CNS was over 100 µM; in the assay with MDA-MB-435, over 100 µM; with TK-10 renal, 58.2 µM; in the assay with A549 NSCLC it was over 100 µM; in the assay on NCI-H460 lung it was 36.8 µM; with CCRF-CEM leukemia, over 100 µM. The TGI with K-562 leukemia was over 100 µM; in the assay on RPMI-8226 leukemia it was over 100 µM; in the assay with RXF 393 renal it was over 100 µM; in the assay on M14 melanoma it was 49.7 µM; in the assay on OVCAR-4 ovarian, over 100 µM; with OVCAR-5 ovarian it was 44 µM. In addition, the TGI in the assay with SK-MEL-5 melanoma was over 100 µM.
In the case of `NC12Oc3cc(O)cc(O)c3C1(c1ccc(Cl)cc1)c1c(O)cc(O)cc1O2` (centres undefined), the TGI in the assay on SF-539 CNS, in the assay on MDA-MB-435, in the assay with TK-10 renal, with A549 NSCLC, with NCI-H460 lung and in the assay on CCRF-CEM leukemia was over 100 µM in each case. For the same molecule, the TGI in the assay with K-562 leukemia, with RPMI-8226 leukemia, in the assay on RXF 393 renal, in the assay on M14 melanoma, in the assay with OVCAR-4 ovarian and in the assay on OVCAR-5 ovarian was over 100 µM in each case. Also, the TGI in the assay with SK-MEL-5 melanoma was over 100 µM.
As for `C#CCN(CC#C)C(=O)C(=O)c1c[nH]c2ccc(OC)cc12`, the TGI with SF-539 CNS was determined as 29.2 µM; in the assay with MDA-MB-435 it was 35.4 µM; in the assay on TK-10 renal it was 34.3 µM; in the assay on A549 NSCLC, 68.5 µM; in the assay with NCI-H460 lung, 29.7 µM; with CCRF-CEM leukemia, 43.1 µM. The TGI in the assay with K-562 leukemia is 33.9 µM; in the assay with RPMI-8226 leukemia, 22.4 µM; with RXF 393 renal, 29.8 µM; in the assay with M14 melanoma it was 34.7 µM; with OVCAR-5 ovarian, 48 µM; in the assay with SK-MEL-5 melanoma, 31.1 µM.
